Reference: patent US11066414B2, “Cot modulators and methods of use thereof” (Gilead Sciences, Inc., priority 2015, dated 2021)
Read-outs that look alike come from different tables or passages of the source. One block for each compound: values may come before it.

What was measured:
[1] = biological target: EGFR (Homo sapiens (Human), UniProt P00533); assay: High Throughput EGFR Biochemical Assay; conditions: Human EGFR cytoplasmic domain, TR-FRET
Description: Example 42: High Throughput EGFR Biochemical Assay
EGFR activity was measured using KinEASE (Cisbio), a time-resolved fluorescence resonance energy transfer (TR-FRET) immunoassay. In this assay, EGFR-catalyzes the phosphorylation of a universal Tyrosine kinase peptide substrate labeled with XL665. Europium conjugated phosphor-tyrosine specific antibody binds the resulting phosphorylated peptide. Formation of phosphorylated peptide is quantified by TR-FRET with Europium as the donor and XL665 the acceptor. The assay was performed in two main steps. The first step is the kinase reaction step and the second step is the detection step with TR-FRET reagents. In brief, test compounds 1:3 serially diluted in DMSO were delivered into Corning white, low volume, non-binding 384 well plates using the Echo 550 acoustic liquid dispenser (Labcyte®). […] After 60 min of incubation at room temperature, 10 μL of Stop and Detect Solution (1:400 Europium Cryptate labeled anti-phosphorylated peptide antibody solution and 125 nM strepavidin-XL665 Tracer in a 50 mM Hepes pH 7.0 detection buffer containing sufficient EDTA) was added.

[2] = tested on: TNFα; assay: Cot Monocyte TNFα Cell Based Assay; conditions: for IC50/EC50 [nM]: EC50 (TNFα): second value of the cell IC50/EC50, TNFα by TR-FRET
[3] = biological target: Human Cot (Homo sapiens (Human), UniProt P41279); assay: High Throughput Cot Biochemical Assay; conditions: for IC50/EC50 [nM]: IC50 (Cot): first value of the cell IC50/EC50, recombinant human Cot catalytic domain, TR-FRET
[4] = Homo sapiens, Monocyte, read-out: EC50 TNF, LPS-stimulated human monocytes, TNFα
[5] = Homo sapiens, Monocyte, read-out: EC50 TNF, LPS-stimulated human monocytes, TNFα TR-FRET
[6] = IC50 HTRF, Cot HTRF (TR-FRET KinEASE) biochemical assay, 400 μM ATP
[7] = read-out: EC50 TNF, LPS-stimulated human monocytes, TNFα TR-FRET
[8] = read-out: IC50 HTRF, Cot HTRF (TR-FRET KinEASE) biochemical assay, 400 μM ATP

Sequence of Human Cot (P41279 30-397): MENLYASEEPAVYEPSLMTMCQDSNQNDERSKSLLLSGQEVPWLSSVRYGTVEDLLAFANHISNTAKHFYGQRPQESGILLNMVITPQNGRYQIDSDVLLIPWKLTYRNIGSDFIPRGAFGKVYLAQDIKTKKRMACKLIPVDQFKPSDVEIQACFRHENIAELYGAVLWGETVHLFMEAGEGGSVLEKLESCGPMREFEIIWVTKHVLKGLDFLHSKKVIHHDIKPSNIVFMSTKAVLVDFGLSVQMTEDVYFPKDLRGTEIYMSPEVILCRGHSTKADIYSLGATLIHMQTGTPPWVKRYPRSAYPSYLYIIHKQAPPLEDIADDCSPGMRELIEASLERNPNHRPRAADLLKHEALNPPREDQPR
Sequence of EGFR (P00533 669-1210): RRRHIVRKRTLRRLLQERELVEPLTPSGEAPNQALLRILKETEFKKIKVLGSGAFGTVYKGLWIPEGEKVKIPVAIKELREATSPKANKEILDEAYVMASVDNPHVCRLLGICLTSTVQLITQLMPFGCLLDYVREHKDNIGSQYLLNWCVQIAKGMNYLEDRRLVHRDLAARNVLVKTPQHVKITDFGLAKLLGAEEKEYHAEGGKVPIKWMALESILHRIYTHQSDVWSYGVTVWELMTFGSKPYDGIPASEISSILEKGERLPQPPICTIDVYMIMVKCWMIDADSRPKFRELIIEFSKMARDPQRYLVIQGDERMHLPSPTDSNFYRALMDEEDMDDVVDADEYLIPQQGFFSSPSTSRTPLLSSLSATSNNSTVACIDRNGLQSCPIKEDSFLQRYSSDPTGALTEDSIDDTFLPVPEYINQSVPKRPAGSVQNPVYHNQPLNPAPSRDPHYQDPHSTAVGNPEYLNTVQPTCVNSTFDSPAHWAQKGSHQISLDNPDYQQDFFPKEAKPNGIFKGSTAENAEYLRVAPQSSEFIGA

IC50 [1]: 3980 nM | EC50 [2, 4]: 46 nM | IC50/EC50 [nM]: EC50 (TNFα) ([2]; LPS-stimulated human monocytes): 46 nM | IC50 ([3]; IC50 HTRF, Cot HTRF (TR-FRET) biochemical assay): 1 nM | IC50/EC50 [nM]: IC50 (Cot) ([3]; 400 μM ATP): 1 nM
Compound: CCN1CCC(n2cc([C@@H](Nc3cc(Cl)c4ncc(C#N)c(Nc5ccc(F)c(Cl)c5)c4c3)c3cccnc3)nn2)CC1 [Example 362, (S)-8-chloro-4-((3-chloro-4-fluorophenyl)amino)-6-(((1-(1-ethylpiperidin-4-yl)-1H-1,2,3-triazol-4-yl)(pyridin-3-yl)methyl)amino)-quinoline-3-carbonitrile]

IC50 [1]: > 10000 nM | EC50 [2, 4]: 102 nM | IC50/EC50 [nM]: EC50 (TNFα) ([2]; LPS-stimulated human monocytes): 102 nM | IC50/EC50 [nM]: IC50 (Cot) ([3]; 400 μM ATP): 3 nM | IC50 ([3]; read-out: IC50 HTRF, Cot HTRF (TR-FRET) biochemical assay): 3 nM
Compound: Cn1cc([C@@H](Nc2cc(Cl)c3ncc(C#N)c(Nc4ccc(F)c(Cl)c4)c3c2)c2cccnc2)nn1 [Example 406, (S)-8-chloro-4-((3-chloro-4-fluoro-phenyl)amino)-6-(((1-methyl-1H-1,2,3-triazol-4-yl)(pyridin-3-yl)-methyl)amino)quinoline-3-carbonitrile]

EC50 [2, 5]: 1000 nM | IC50 [3, 6]: 1230 nM
Compound: Cc1nc(F)ccc1[C@H](Nc1cc(Cl)c2ncc(C#N)c(NCC(C)(C)C)c2c1Br)c1nnn(C2(C(F)F)CC2)c1F [Example 975, (S)-5-bromo-8-chloro-6-(((1-(1-(difluoromethyl)cyclopropyl)-5-fluoro-1H-1,2,3-triazol-4-yl)(6-fluoro-2-methylpyridin-3-yl)methyl)amino)-4-(neopentylamino)quinoline-3-carbonitrile]

EC50 [2, 7]: 276 nM | IC50 [3, 8]: 21 nM
Compound: Cc1nc(F)ccc1[C@H](Nc1cc(-c2cncnc2)c2ncc(C#N)c(NCC(C)(C)C)c2c1)c1cn(C2(C(F)F)CC2)nn1 [Example 976]

EC50 [2, 5]: 303 nM | IC50 [3, 6]: 9 nM
Compound: COc1ccc(C(Nc2cc(Cl)c3ncc(C#N)c(NCC(C)(C)C)c3c2)c2cn(C3(C(F)(F)F)CC3)nn2)c(C)n1 (centres unmarked) [Example 978, 8-chloro-6-(((6-methoxy-2-methylpyridin-3-yl)(1-(1-(trifluoromethyl)cyclopropyl)-1H-1,2,3-triazol-4-yl)methyl)amino)-4-(neopentylamino)quinoline-3-carbonitrile]

EC50 [2, 5]: 1000 nM | IC50 [3, 6]: 244 nM
Compound: Cc1nc(F)ccc1[C@@H](c1cn(C2(C(F)(F)F)CC2)nn1)N(C)c1cc(Cl)c2ncc(C#N)c(NCC(C)(C)C)c2c1 [Example 979, (S)-8-chloro-6-(((6-fluoro-2-methylpyridin-3-yl)(1-(1-(trifluoromethyl)cyclopropyl)-1H-1,2,3-triazol-4-yl)methyl)(methyl)amino)-4-(neopentylamino)quinoline-3-carbonitrile]

EC50 [2, 5]: 20 nM | IC50 [3, 6]: 4 nM
Compound: CC(=O)c1cc(N[C@H](c2cn(C3(C(F)F)CC3)nn2)c2ccc(F)nc2C)cc2c(NCC(C)(C)C)c(C#N)cnc12 [Example 981, (S)-8-acetyl-6-(((1-(1-(difluoromethyl)cyclopropyl)-1H-1,2,3-triazol-4-yl)(6-fluoro-2-methylpyridin-3-yl)methyl)amino)-4-(neopentylamino)quinoline-3-carbonitrile]

EC50 [2, 5]: 1000 nM | IC50 [3, 6]: 9640 nM
Compound: Cc1nc(F)ccc1[C@H](Nc1cc(Cl)c2ncc(C#N)c(NCC(C)(C)C)c2c1F)c1cn(C2(C(F)F)CC2)nn1 [Example 983, (S)-8-chloro-6-(((1-(1-(difluoromethyl)cyclopropyl)-1H-1,2,3-triazol-4-yl)(6-fluoro-2-methylpyridin-3-yl)methyl)amino)-5-fluoro-4-(neopentylamino)quinoline-3-carbonitrile]

EC50 [2, 5]: 141 nM | IC50 [3, 6]: 5 nM
Compound: Cc1nc(F)ccc1[C@H](Nc1cc(Cl)c2ncc(C#N)c(NCC(C)(C)C)c2c1)c1cn(CCCO)nn1 [Example 986, (S)-8-chloro-6-(((6-fluoro-2-methylpyridin-3-yl)(1-(3-hydroxypropyl)-1H-1,2,3-triazol-4-yl)methyl)amino)-4-(neopentylamino)quinoline-3-carbonitrile]

EC50 [2, 7]: 134 nM | IC50 [3, 8]: 10 nM
Compound: (S)-6-(((1-(1,1′-bi(cyclopropan)]-1-yl)-1H- 1,2,3-triazol-4-yl)(1-methoxylsoquinolin- 5-yl)methyl)amino)-8-chloro-4- (neopentylamino)quinoline-3-carbonitrile [Example 931]
